Here are results for 5 molecules from paper PMC4014323, “Structure of tyrosine aminotransferase from Leishmania infantum” (Acta Crystallographica. Section F, Structural Biology …, 2014).

In data set [1] the target is T1, LiTAT_truncated (Leishmania infantum, UniProt A4IDL0).
T1 construct: gene TAT; E. coli BL21(DE3) pLysS; homodimer; model Ser40-Lys448
T1 sequence (A4IDL0 39-448): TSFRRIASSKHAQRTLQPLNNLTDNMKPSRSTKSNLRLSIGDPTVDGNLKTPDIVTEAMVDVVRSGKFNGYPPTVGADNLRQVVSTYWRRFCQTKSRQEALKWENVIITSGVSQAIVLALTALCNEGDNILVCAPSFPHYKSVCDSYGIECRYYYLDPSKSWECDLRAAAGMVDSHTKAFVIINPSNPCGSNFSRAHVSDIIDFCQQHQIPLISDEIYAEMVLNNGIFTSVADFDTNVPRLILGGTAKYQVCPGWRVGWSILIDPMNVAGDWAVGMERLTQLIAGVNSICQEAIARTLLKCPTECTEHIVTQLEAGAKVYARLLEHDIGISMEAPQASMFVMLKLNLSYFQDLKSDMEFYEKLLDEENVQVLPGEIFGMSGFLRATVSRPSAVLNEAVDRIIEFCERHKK
The experiment in a line: X-ray crystallography, […] A. The class given is binding. The following applies: covalent, internal aldimine at Lys286; crystals at pH 8.5.

Data set [2] concerns the target T1, LiTAT_truncated. The experiment in a line: Diamondstone p-hydroxybenzaldehyde assay. The class given is biochemical.
Data set [3] deals with the molecule itself. The experiment in a line: SEC; HiLoad 26/60 Superdex 75 prep grade, room temperature, 20 mM HEPES pH 7.0, 300 mM NaCl, 5% glycerol, 1 mM TCEP; molecular weight estimated from a calibration curve (Low Molecular Weight Kit).

In the case of `Cc1ncc(COP(=O)(O)O)c(C=O)c1O` [PLP], on LiTAT_truncated [1], the “X-ray crystallography, 2.35 A” value is “In both subunits of LiTAT, PLP is covalently bound to Lys286”.
For `CC(=O)C(=O)O` [pyruvate], at LiTAT_truncated [2] (amino acceptor, co-substrate tyrosine), the Diamondstone p-hydroxybenzaldehyde assay result is on record as “it can transaminate pyruvate with high efficiency”.
Turning to `N[C@@H](Cc1ccc(O)cc1)C(=O)O` [tyrosine], the Diamondstone p-hydroxybenzaldehyde assay result at LiTAT_truncated [2] (amino donor, co-substrate pyruvate) is listed as “using tyrosine as the amino donor”.

B1: Leishmania infantum tyrosine aminotransferase, truncated (lacking the first 114 nucleotides of the annotated sequence) (domain or fragment, UniProt A4IDL0 39-448, looked up)
chain: TSFRRIASSKHAQRTLQPLNNLTDNMKPSRSTKSNLRLSIGDPTVDGNLKTPDIVTEAMVDVVRSGKFNGYPPTVGADNLRQVVSTYWRRFCQTKSRQEALKWENVIITSGVSQAIVLALTALCNEGDNILVCAPSFPHYKSVCDSYGIECRYYYLDPSKSWECDLRAAAGMVDSHTKAFVIINPSNPCGSNFSRAHVSDIIDFCQQHQIPLISDEIYAEMVLNNGIFTSVADFDTNVPRLILGGTAKYQVCPGWRVGWSILIDPMNVAGDWAVGMERLTQLIAGVNSICQEAIARTLLKCPTECTEHIVTQLEAGAKVYARLLEHDIGISMEAPQASMFVMLKLNLSYFQDLKSDMEFYEKLLDEENVQVLPGEIFGMSGFLRATVSRPSAVLNEAVDRIIEFCERHKK
modifications: PLP covalently bound to Lys286
notes: residues Ser40-Lys448 built in chain A of the crystal structure; they are worked out from the deletion of the first 114 nucleotides of a protein of 448 amino acids; source: E. coli BL21 (DE3) pLysS, purified (HisTrap FF, Superdex 75 SEC); not shown: His tag (from the vector pRSET-A)
A word on the stoichiometry N: it is a count of units in the complex or per binding partner. Regarding B1, in data set [3], the “stoichiometry N” value was 2.

B2: Leishmania infantum tyrosine aminotransferase, full length (enzyme, UniProt A4IDL0 1-448, looked up)
chain: MTIDTQAAPAAQTLKAGNSTGSLTEERREVEQQRAAENTSFRRIASSKHAQRTLQPLNNLTDNMKPSRSTKSNLRLSIGDPTVDGNLKTPDIVTEAMVDVVRSGKFNGYPPTVGADNLRQVVSTYWRRFCQTKSRQEALKWENVIITSGVSQAIVLALTALCNEGDNILVCAPSFPHYKSVCDSYGIECRYYYLDPSKSWECDLRAAAGMVDSHTKAFVIINPSNPCGSNFSRAHVSDIIDFCQQHQIPLISDEIYAEMVLNNGIFTSVADFDTNVPRLILGGTAKYQVCPGWRVGWSILIDPMNVAGDWAVGMERLTQLIAGVNSICQEAIARTLLKCPTECTEHIVTQLEAGAKVYARLLEHDIGISMEAPQASMFVMLKLNLSYFQDLKSDMEFYEKLLDEENVQVLPGEIFGMSGFLRATVSRPSAVLNEAVDRIIEFCERHKK
notes: Tyrosine aminotransferase of Leishmania infantum (MHOM/ES/98/10445), full-length gene LinJ.36.2490 encoding 448 amino acids; Cloned BamHI/HindIII into pRSET-A; PLP (4 uM) was in the lysis and IMAC buffers; also called LiTAT; TAT; source: E. coli BL21 (DE3) pLysS, purified (HisTrap FF, Superdex 75 SEC); not shown: His tag (from the vector pRSET-A)
As for B2, the “stoichiometry N” value in data set [3] was 2.
